Counter-ions that a name gives are not always drawn.
What was measured:
CXCR2 (IL-8B) = target: T1, CXCR2 (IL-8B) (Homo sapiens, UniProt P25025); test: Radioligand binding; conditions: 100 μM
T1 construct: purchased Eurofins CEREP

AT2 = target: T2, AT2 (Homo sapiens, UniProt P50052); test: Radioligand binding; conditions: 100 μM
T2 construct: purchased Eurofins CEREP

ETB = target: T3, ETB (Homo sapiens, UniProt P24530); test: Radioligand binding; conditions: 100 μM
T3 construct: purchased Eurofins CEREP
T3 sequence (P24530 27-442): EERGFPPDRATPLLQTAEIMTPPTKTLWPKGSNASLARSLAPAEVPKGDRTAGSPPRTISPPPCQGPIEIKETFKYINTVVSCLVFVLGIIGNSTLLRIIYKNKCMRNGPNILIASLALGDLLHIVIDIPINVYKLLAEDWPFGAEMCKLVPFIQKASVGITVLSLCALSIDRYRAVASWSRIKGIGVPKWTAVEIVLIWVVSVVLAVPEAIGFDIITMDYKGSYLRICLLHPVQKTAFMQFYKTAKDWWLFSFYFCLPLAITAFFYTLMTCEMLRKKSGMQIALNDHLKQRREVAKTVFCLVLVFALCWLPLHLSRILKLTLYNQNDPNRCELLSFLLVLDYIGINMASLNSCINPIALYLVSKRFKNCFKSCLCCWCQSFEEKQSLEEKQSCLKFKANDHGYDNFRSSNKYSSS

CCR1 = target: T4, CCR1 (Homo sapiens, UniProt P32246); test: Radioligand binding; conditions: 100 μM
T4 construct: purchased Eurofins CEREP
T4 sequence (P32246 whole entry): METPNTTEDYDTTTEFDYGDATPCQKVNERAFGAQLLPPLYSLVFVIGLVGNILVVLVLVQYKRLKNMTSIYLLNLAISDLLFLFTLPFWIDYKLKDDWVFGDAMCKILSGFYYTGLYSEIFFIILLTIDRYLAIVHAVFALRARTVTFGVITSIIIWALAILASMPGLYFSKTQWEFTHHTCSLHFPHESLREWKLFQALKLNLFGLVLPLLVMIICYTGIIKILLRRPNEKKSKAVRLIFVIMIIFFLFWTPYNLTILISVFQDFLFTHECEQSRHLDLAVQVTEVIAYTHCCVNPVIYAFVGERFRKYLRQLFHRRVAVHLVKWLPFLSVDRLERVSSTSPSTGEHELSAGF

H2 = target: T5, H2 (Homo sapiens, UniProt P25021); test: Radioligand binding; conditions: 100 μM
T5 construct: purchased Eurofins CEREP
T5 sequence (P25021 whole entry): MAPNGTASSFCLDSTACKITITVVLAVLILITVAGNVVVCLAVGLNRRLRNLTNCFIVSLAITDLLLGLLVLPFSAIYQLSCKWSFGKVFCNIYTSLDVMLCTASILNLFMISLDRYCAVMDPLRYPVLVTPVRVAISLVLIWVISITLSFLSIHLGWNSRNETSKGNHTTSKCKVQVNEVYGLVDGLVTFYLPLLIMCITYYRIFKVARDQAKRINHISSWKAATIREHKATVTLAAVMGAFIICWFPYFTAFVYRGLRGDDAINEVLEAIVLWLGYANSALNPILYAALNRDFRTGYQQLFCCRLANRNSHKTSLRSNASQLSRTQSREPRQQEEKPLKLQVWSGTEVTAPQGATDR

GAL1 = target: T6, GAL1 (Homo sapiens, UniProt P47211); test: Radioligand binding; conditions: 100 μM
T6 construct: purchased Eurofins CEREP

5-HT5a = target: T7, 5-HT5a (Homo sapiens, UniProt P47898); test: Radioligand binding; conditions: 100 μM
T7 construct: purchased Eurofins CEREP
T7 sequence (P47898 whole entry): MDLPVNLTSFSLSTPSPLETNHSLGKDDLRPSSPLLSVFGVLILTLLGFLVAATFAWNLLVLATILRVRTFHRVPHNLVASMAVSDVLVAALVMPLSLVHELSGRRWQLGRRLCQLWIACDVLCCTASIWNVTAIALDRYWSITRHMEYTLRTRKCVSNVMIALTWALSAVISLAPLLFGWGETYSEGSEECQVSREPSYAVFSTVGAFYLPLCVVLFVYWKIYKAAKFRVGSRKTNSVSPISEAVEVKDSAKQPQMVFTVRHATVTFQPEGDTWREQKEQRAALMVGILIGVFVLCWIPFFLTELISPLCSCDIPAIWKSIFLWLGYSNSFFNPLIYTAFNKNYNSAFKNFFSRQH

GR = target: T8, GR (Homo sapiens, UniProt P04150); test: Radioligand binding; conditions: 100 μM
T8 construct: purchased Eurofins CEREP
T8 sequence (P04150 whole entry): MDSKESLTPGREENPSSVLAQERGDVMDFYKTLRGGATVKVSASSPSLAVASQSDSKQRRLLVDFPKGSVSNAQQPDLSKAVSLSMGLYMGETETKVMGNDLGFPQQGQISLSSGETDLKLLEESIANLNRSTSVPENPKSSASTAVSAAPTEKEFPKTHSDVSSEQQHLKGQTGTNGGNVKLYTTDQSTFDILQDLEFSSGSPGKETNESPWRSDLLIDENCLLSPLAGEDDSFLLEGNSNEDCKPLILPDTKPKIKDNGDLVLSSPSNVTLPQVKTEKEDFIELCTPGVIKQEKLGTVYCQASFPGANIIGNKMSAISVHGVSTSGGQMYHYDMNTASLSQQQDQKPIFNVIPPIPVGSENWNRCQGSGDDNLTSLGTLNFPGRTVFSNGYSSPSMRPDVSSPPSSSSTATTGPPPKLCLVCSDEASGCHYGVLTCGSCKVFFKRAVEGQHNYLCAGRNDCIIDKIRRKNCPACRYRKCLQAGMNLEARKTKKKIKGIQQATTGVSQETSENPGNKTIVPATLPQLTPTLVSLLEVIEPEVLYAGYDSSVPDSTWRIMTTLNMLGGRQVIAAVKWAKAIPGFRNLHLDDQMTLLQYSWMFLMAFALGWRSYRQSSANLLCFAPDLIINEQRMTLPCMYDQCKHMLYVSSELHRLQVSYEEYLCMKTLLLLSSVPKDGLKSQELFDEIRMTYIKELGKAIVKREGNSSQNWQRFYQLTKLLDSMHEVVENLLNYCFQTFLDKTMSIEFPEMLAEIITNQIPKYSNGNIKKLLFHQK

δ (DOP) = target: T9, δ (DOP) (Homo sapiens, UniProt P41143); test: Radioligand binding; conditions: 100 μM
T9 construct: purchased Eurofins CEREP
T9 sequence (P41143 whole entry): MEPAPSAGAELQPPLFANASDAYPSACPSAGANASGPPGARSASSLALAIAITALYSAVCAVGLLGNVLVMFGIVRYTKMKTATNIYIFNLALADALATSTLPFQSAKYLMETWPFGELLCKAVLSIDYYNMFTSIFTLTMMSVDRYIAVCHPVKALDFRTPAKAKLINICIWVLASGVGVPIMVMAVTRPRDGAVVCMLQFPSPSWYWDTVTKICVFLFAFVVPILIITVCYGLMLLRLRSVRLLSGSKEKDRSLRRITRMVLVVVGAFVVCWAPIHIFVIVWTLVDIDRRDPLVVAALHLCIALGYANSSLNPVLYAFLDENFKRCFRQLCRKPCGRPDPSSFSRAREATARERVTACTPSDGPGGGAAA

CB1 = target: T10, CB1 (Homo sapiens, UniProt P21554); test: Radioligand binding; conditions: 100 μM
T10 construct: purchased Eurofins CEREP
T10 sequence (P21554 whole entry): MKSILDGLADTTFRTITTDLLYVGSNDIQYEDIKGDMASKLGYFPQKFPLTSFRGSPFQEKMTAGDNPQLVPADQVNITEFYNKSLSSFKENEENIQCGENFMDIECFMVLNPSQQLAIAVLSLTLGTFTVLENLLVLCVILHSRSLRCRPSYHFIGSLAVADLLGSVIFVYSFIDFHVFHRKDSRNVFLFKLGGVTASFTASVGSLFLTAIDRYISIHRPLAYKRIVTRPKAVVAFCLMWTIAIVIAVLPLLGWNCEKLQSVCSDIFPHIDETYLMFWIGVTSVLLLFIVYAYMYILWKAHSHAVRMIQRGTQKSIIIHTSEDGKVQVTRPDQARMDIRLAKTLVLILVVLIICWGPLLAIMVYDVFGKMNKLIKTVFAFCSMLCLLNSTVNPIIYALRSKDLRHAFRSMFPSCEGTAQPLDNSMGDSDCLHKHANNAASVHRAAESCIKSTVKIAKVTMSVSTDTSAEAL

M3 = target: T11, M3 (Homo sapiens, UniProt P20309); test: Radioligand binding; conditions: 100 μM
T11 construct: purchased Eurofins CEREP
T11 sequence (P20309 whole entry): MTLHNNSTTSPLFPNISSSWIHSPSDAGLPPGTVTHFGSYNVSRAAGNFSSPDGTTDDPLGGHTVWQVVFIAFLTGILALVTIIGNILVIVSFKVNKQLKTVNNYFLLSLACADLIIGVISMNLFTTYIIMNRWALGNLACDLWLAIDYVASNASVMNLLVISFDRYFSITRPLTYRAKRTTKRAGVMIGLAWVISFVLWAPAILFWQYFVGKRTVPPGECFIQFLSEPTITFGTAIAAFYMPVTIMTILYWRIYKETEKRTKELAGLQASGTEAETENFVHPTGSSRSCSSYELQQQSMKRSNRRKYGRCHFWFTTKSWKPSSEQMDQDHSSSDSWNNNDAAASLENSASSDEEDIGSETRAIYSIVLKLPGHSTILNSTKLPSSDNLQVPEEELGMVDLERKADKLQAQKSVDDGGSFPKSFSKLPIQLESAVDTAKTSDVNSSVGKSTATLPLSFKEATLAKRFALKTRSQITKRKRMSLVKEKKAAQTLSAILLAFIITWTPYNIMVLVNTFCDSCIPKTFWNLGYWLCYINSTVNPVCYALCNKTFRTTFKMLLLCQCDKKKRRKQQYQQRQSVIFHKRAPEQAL

μ (MOP) = target: T12, μ (MOP) (Homo sapiens, UniProt P35372); test: Radioligand binding; conditions: 100 μM
T12 construct: purchased Eurofins CEREP
T12 sequence (P35372 whole entry): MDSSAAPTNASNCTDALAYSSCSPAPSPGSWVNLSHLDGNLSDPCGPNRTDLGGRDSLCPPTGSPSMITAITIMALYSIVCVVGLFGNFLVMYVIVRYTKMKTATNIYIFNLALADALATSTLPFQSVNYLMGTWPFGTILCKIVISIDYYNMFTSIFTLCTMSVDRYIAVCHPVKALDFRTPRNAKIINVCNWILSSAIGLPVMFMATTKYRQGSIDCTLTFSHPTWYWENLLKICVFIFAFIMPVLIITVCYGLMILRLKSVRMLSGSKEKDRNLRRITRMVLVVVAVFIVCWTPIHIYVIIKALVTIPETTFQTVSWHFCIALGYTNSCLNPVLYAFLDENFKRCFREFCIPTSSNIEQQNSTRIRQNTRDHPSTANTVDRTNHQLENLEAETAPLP

H1 = target: T13, H1 (Homo sapiens, UniProt P35367); test: Radioligand binding; conditions: 100 μM
T13 construct: purchased Eurofins CEREP

NK2 = target: T14, NK2 (Homo sapiens, UniProt P21452); test: Radioligand binding; conditions: 100 μM
T14 construct: purchased Eurofins CEREP
T14 sequence (P21452 whole entry): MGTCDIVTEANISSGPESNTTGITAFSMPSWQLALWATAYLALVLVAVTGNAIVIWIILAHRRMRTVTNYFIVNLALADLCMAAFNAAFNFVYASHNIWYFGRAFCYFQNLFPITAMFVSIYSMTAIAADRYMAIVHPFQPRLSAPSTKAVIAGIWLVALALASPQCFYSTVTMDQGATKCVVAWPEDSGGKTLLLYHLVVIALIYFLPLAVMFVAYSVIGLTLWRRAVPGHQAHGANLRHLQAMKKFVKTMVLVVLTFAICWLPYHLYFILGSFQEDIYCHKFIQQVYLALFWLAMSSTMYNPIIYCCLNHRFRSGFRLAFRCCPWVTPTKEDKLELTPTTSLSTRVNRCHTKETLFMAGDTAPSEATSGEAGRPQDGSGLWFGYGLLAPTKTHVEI

MC4 = target: T15, MC4 (Homo sapiens, UniProt P32245); test: Radioligand binding; conditions: 100 μM
T15 construct: purchased Eurofins CEREP

CCK2 (CCKB) = target: T16, CCK2 (CCKB) (Homo sapiens, UniProt P32239); test: Radioligand binding; conditions: 100 μM
T16 construct: purchased Eurofins CEREP

GABA (non-selective) = test: Radioligand binding; set-up: species or system rat; conditions: 100 μM
Method: (§1) Radioligand binding. Radioligand binding assays were performed at Eurofins CEREP (France). The results are expressed as a percent of control specific binding (measured specific binding*100/control specific binding) and as a percent inhibition of control specific binding (100-(measured specific binding*100)/control specific binding) obtained in the presence of the test compounds. The IC50 values (concentration causing a half-maximal inhibition of control specific binding) and Hill coefficients (nH) were determined by non-linear regression analysis of the competition curves generated with mean replicate values using Hill equation curve fitting (Y = D + [A-D]/[1 + (C/C50)^nH], where Y = specific binding, A = left asymptote of the curve, D = right asymptote of the curve, C = compound concentration, C50 = IC50, and nH = slope factor). This analysis was performed using software developed at Cerep (Hill software) and validated by comparison with data generated by the commercial software SigmaPlot® 4.0 for Windows® (© 1997 by SPSS Inc.). The inhibition constants (Ki) were calculated using the Cheng Prusoff equation (Ki = IC50/[1 + L/KD], where L = concentration of radioligand in the assay, and KD = affinity of the radioligand for the receptor). A scatchard plot is used to determine the Kd.

SKCa channel = test: Radioligand binding; set-up: species or system rat; conditions: 100 μM
Method: as §1

BB (non-selective) = test: Radioligand binding; set-up: species or system rat; conditions: 100 μM
Method: as §1

P2Y = test: Radioligand binding; set-up: species or system rat; conditions: 100 μM
Method: as §1

Cl- channel (GABA-gated) = test: Radioligand binding; set-up: species or system rat; conditions: 100 μM
Method: as §1

PCP = test: Radioligand binding; set-up: species or system rat; conditions: 100 μM
Method: as §1

P2X = test: Radioligand binding; set-up: species or system rat; conditions: 100 μM
Method: as §1

KV channel = test: Radioligand binding; set-up: species or system rat; conditions: 100 μM
Method: as §1

rats = test: Whole body plethysmography; assay type: in vivo; conditions: 6, 10 and 20 mg/kg ip, 4-h test period
Method: Whole body plethysmography. The method, which detects the effects of a test substance on airway function, follows that described by Chong et al. and by Hamelmann et al.. Rats were placed individually in a single chamber plethysmograph (Buxco) in which they can move and drink freely. After a habituation period of 150 min, the following parameters were recorded: inspiratory time, expiratory time, peak inspiratory flow, peak expiratory flow, tidal volume, respiratory rate, relaxation time, pause, enhanced pause. All data generated were acquired using specialized EMKA Technologies software (lOX version 1.7.0; ANALYST version 1.49), connected to Buxco plethysmographic equipment. Recordings were taken for 30 min before and for 4 h after administration of the test substance. […] Each time point represented the mean value of a 2-min block (recorded 1 min before and 1 min after each time point). In cases where the data can be considered invalid, for example if recorded during a period of sniffing thereby causing a brief period of increased respiratory frequency, the retained values were those as close as possible to the theoretical time point. Results were expressed as absolute values and as percent changes from initial mean values (T0). […] Each test substance was evaluated at 3 doses (6 mg/kg, 10 mg/kg, and 20 mg/kg), administered ip, and compared with a vehicle control group. […]

in vivo = conditions: rat, ip
Method: The assays were carried out within the Epilepsy Therapy Screening Program (ETSP, previously known as the Anticonvulsant Screening Program, ASP), Epilepsy Branch, National Institute of Neurological and Communicative Disorders and Stroke, National Institutes of Health in Rockville, MD, USA [23].
The obtained compounds were screened for antiseizure activity and neurotoxicity in vivo within the Epilepsy Therapy Screening Program (ETSP, previously known as the Anticonvulsant Screening Program, ASP), Epilepsy Branch, National Institute of Neurological and Communicative Disorders and Stroke, National Institutes of Health in Rockville, MD, USA [23].

α1 (non-selective) = test: Radioligand binding; set-up: species or system rat
Sigma 1 = target: T17, Sigma 1 (Homo sapiens, UniProt Q99720); test: Radioligand binding
T17 construct: purchased Eurofins CEREP
T17 sequence (Q99720 whole entry): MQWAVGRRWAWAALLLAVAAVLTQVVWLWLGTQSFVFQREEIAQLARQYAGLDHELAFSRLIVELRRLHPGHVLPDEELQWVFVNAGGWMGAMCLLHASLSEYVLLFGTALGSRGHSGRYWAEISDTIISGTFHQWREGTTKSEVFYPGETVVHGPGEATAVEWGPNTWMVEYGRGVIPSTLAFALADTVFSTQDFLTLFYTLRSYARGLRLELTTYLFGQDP

For `CCC(CO)NCCOc1c(C)cccc1Cl` (centres unmarked) [Compound 4, R,S-2-((2-(2-chloro-6-methylphenoxy)ethyl)amino)butan-1-ol], the “% of control specific binding” value (CXCR2 (IL-8B)) was 112.2%, the “% of control specific binding” value (AT2) was 108.2% and the “% of control specific binding” value (ETB) was 134.4%. The “% of control specific binding” value (CCR1) was 100.7%, the “% of control specific binding” value (H2) was 90.3% and the “% of control specific binding” value (GAL1) was 123.5%. For the same molecule, the “% of control specific binding” value (5-HT5a) was 52.8%, the “% of control specific binding” value (GR) was 111.7% and the “% of control specific binding” value (δ (DOP)) was 97.0%. The “% of control specific binding” value (CB1) was 126.0%, the “% of control specific binding” value (M3) was 63.5% and the “% of control specific binding” value (μ (MOP)) was 50.1%. For the same molecule, the “% of control specific binding” value (H1) was 58.9%, the “% of control specific binding” value (NK2) was 88.7% and the “% of control specific binding” value (MC4) was 92.0%. The “% of control specific binding” value (CCK2 (CCKB)) was 107.4%, the “% of control specific binding” value (GABA (non-selective)) was 109.3% and the “% of control specific binding” value (SKCa channel) was 90.5%. The “% of control specific binding” value (BB (non-selective)) was 104.6%, the “% of control specific binding” value (P2Y) was 102.2% and the “% of control specific binding” value (Cl- channel (GABA-gated)) was 99.6%. For the same molecule, the “% of control specific binding” value (PCP) was 72.6%, the “% of control specific binding” value (P2X) was 100.6% and the “% of control specific binding” value (KV channel) was 104.2%.

In the case of `CCC(CO)NCCOc1c(C)cccc1Cl` (centres unmarked) [KM-408, R,S-2-((2-(2-chloro-6-methylphenoxy)ethyl)amino)butan-1-ol hydrochloride], the “effects on respiratory parameters” value (rats) is reported as “No significant effects”, the TD50 (in vivo) is reported as 54.3 mg/kg and the IC50 (α1 (non-selective)) is reported as 12 µM. For the same molecule, the Ki (α1 (non-selective)) was 3.3 µM, the “% of control specific binding” value (α1 (non-selective); 0.01 μM) was 102.4% and the “% of control specific binding” value (α1 (non-selective); 0.1 μM) was 97.3%. For the same molecule, the “% of control specific binding” value (α1 (non-selective); 1 μM) was 90.0%, the “% of control specific binding” value (α1 (non-selective); 10 μM) was 55.9% and the “% of control specific binding” value (α1 (non-selective); 100 μM) was 12.8%. For the same molecule, the inhibition at 10 µM (Sigma 1; read-out: % inhibition of specific control binding) was 95% and the remaining activity at 10 µM (Sigma 1; read-out: % of control specific binding) was 95%.
